Here are results for one compound from US11766470B2, “Manufacture, formulation and dosing of apraglutide” (VectivBio AG, priority 2020, dated 2023).

The nature of data set [1]: Population PK/PD model of plasma apraglutide and plasma citrulline (healthy volunteers and SBS patients).
Source text: Plasma citrulline was used as a pharmacodynamic (“PD”) marker to describe the effect of apraglutide. Similar to the pharmacokinetic (“PK”) model development, the PK/PD model was developed for the healthy individuals from studies GLY-101-2015 and TA799-002 only. For development of the PD model, the PD observations were fitted together with the PK observations using the final PK model with its structure, residual error-, covariates- and random effects-models. The starting model was a turnover model where plasma citrulline was constantly synthesized and degraded with the synthesis rate ksyn and the degradation rate kdeg. Plasma apraglutide stimulated citrulline synthesis via a sigmoid Emax relationship with the baseline citrulline level R0, the half-maximal effect at the concentration EC50, the maximal effect Emax, and a Hill coefficient gamma. It was assumed that citrulline turnover was in steady state such that citrulline synthesis was determined solely by citrulline baseline and degradation. The population PK/PD of plasma apraglutide was established with data from two studies in healthy volunteers and two studies with SBS patients that tested doses between 2.5 and 50 mg SC.
The population PK/PD model was used to predict plasma apraglutide exposure and plasma citrulline trough concentration-time profiles with and without inter-individual variability for individuals with body weights between 40 and 120 kg receiving weekly doses of 2.5, 5, or 10 mg SC. […] Apraglutide exposure for body weights between 40 and 120 kg and apraglutide SC doses of 2.5, 5, or 10 mg was compared to post-hoc exposure estimates of SBS patients. Bracketing at a body weight of 50 kg between doses of 2.5 and 5 mg was simulated.
Plasma citrulline was described by a turnover model and maximal PD effect model.
The test system of data set [2] is anti-apraglutide antibodies. In words: Anti-apraglutide antibodies ELISA in serum, Phase 2 SBS-IF trial (Example 5). The data set is classed as in vivo, human. From the text: Blood samples for analysis of plasma concentration of apraglutide and fasting plasma L-citrulline, a marker of enterocyte mass, were collected at baseline, during first and second treatment injection, four days after first treatment injection and at the end of treatment.
A fully validated ELISA method was used for the detection of anti-apraglutide antibodies in serum, following a three-tiered assay approach. In the first tier, anti-apraglutide antibodies present in samples and controls bonded to apraglutide immobilized on a microtiter plate. The bound anti-apraglutide antibodies were then detected with protein A/G and protein L. A sample with a signal above the validated screening cut-point was considered potentially positive and was then tested in the second tier, the confirmatory assay. For this, samples were pre-treated with an excess of apraglutide prior to testing them in the assay described above. An inhibition of the signal equal to or greater than the validated confirmatory cut-point confirmed the presence of antibodies. Samples were then reported as anti-apraglutide antibody positive. Titers were then determined by serial dilution of all confirmed positive samples.

The structures appear in SMILES notation. Square brackets hold non-standard residues; d marks the D form. Peptide text beside a SMILES is read from it. ξ: configuration not given here. Ile(3ξ) = CCC(C)[C@H](N)C(=O)O; Thr(3ξ) = CC(O)[C@H](N)C(=O)O; Nle = CCCC[C@H](N)C(=O)O

Turning to `CCCC[C@H](NC(=O)[C@H](CCC(=O)O)NC(=O)[C@H](CC(=O)O)NC(=O)[C@H](CO)NC(=O)[C@H](Cc1ccccc1)NC(=O)[C@H](CO)NC(=O)CNC(=O)[C@H](CC(=O)O)NC(=O)CNC(=O)[C@@H](N)Cc1c[nH]cn1)C(=O)N[C@H](Cc1ccccc1)C(=O)N[C@H](C(=O)N[C@H](C(=O)N[C@@H](CC(C)C)C(=O)N[C@@H](CC(=O)O)C(=O)N[C@@H](CC(C)C)C(=O)N[C@@H](CC(C)C)C(=O)N[C@@H](C)C(=O)N[C@@H](C)C(=O)N[C@@H](CCCNC(=N)N)C(=O)N[C@@H](CC(=O)O)C(=O)N[C@@H](Cc1ccccc1)C(=O)N[C@H](C(=O)N[C@@H](CC(N)=O)C(=O)N[C@@H](Cc1c[nH]c2ccccc12)C(=O)N[C@@H](CC(C)C)C(=O)N[C@H](C(=O)N[C@@H](CCC(N)=O)C(=O)N[C@H](C(=O)N[C@@H](CCCCN)C(=O)N[C@H](C(=O)N[C@H](C(=O)N[C@@H](CC(=O)O)C(N)=O)C(C)O)C(C)CC)C(C)O)C(C)CC)C(C)CC)C(C)CC)C(C)O` (stereo partly drawn) [apraglutide, L-histidyl-glycyl-L-aspartyl-glycyl-L-seryl-L-phenylalanyl-L-seryl-L-aspartyl-L-glutamyl-L-norleucyl-D-phenylalanyl-L-threonyl-Lisoleucyl-L-leucyl-L-aspartyl-L-leucyl-L-leucyl-L-alanyl-L-alanyl-L-arginyl-L-aspartyl-L-phenylalanyl-L-isoleucyl-L-asparaginyl-Ltryptophanyl-L-leucyl-L-isoleucyl-L-glutaminyl-L-threonyl-L-lysyl-L-isoleucyl-L-threonyl-Laspartic acid amide] (H-HGDGSFSDE[Nle][dF][Thr(3ξ)][Ile(3ξ)]LDLLAARDF[Ile(3ξ)]NWL[Ile(3ξ)]Q[Thr(3ξ)]K[Ile(3ξ)][Thr(3ξ)]D-NH2), in data set [1], the “Body weight coefficient on clearance βC1/F/B,W” value is reported as 1.8; the “Dose at which citrulline saturation appears” value is on record as 5 mg; the “Dose coefficient on zero-order absorption duration βTk0,Dose” value was 0.249; the “Half-life, population PK estimate” value was 31.2 h. Further, in data set [1], the “Maximal effect (Emax) on citrulline synthesis” value is recorded as 0.626. Besides, in data set [1] (70-kg individual, 5 mg SC), the “Central volume of distribution, population PK estimate” value is on record as 31.5 L; the “Clearance, population PK estimate” value is 16.8 L/day; the “Volume of distribution, population PK/PD model estimate” value was 31.3 L. In data set [1] (plasma concentration, Emax turnover model), the “Half-maximal effective apraglutide concentration (EC50) on plasma citrulline” value is 0.0137 µg/mL. The “Patients who developed anti-apraglutide antibodies” value in data set [2] (during the trial) is “Three”. The “Patients positive for anti-apraglutide antibodies” value in data set [2] (end of 5 mg treatment period) is “Two”. Further, the “Patients positive for anti-apraglutide antibodies” value in data set [2] (end of 10 mg treatment period) is listed as “one”. In data set [2] (in vivo), the “Effects of anti-apraglutide antibodies on PK profile, pharmacodynamic response, adverse events” value was “No effects of anti-apraglutide antibodies were detected”.
